Measurements published in patent publication EP4516309A1, “CRHR1 AGONISTS FOR USE IN THE TREATMENT OF SOCIAL ANXIETY DISORDERS” (Consejo Superior de Investigaciones Cientificas, priority 2023, dated 2025).

Tests used:
excitatory DREADD = molecular target: T1, excitatory DREADD (Homo sapiens, UniProt P20309, A239G/Y149C); experiment: Repetitive social presentation test with chemogenetic activation of ILA CRH cells; format: in vivo, CRH-Cre mice; conditions: CNO; excitatory DREADD in ILA CRH neurons
T1 construct: host or cells: ILA CRH+ neurons of CRH-Cre mice, Cre-dependent AAV2/5 transduction in vivo
T1 sequence (P20309 whole entry Y149C/A239G): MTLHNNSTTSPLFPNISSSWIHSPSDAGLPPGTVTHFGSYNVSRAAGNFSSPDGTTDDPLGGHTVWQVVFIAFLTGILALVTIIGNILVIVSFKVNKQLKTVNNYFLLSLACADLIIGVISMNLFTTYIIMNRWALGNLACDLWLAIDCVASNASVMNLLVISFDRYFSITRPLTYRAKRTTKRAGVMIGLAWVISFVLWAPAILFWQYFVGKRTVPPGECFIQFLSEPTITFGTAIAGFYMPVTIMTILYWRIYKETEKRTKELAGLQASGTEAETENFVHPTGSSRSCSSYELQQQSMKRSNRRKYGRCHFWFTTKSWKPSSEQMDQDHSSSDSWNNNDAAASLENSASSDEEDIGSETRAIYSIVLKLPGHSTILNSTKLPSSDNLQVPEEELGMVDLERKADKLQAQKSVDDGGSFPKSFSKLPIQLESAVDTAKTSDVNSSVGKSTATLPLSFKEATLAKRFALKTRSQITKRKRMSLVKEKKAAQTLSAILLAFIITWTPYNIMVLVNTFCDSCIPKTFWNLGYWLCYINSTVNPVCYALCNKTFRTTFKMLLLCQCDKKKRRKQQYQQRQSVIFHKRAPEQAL
Procedure: Injection coordinates were the following (in mm from Bregma): AP: 1.65, ML: ±0.1, DV: -2.6. Injections were done bilaterally with 100 nl injected per site. AAV2/DJ hSyn.FLEX.mGFP.2A.Synatophysin-mRuby (Addgene #71760 prepared by the Stanford University vector core #1930), AAV2/8 hSyn.DIO.hM4D(Gi)-mCherry (Addgene #44362-AAV8), AAV2/8 hSyn.DIO.mCherry (Addgene #50459-AAV8), AAV2/5-hSyn-DIO-hM3D(Gq)-mCherry (Addgene, #44361-AAV5), AAV2/5 hsyn.DIO.mCherry (Addgene #50459-AAV5), AAV2/1 syn.FLEX.GCaMP6f.WPRE.SV40 (Addgene #100833-AAV1), AAV2/9 CMV-DIO-(mCherry-U6)-shRNA(anti-Crh) (VTA brain), AAV2/9 CMV-DIO-(mCherry-U6)-shRNA(scrambled) (VTA brain), AAV2/9 hSyn.FLEX.dsRed-shRNA(Vgat) (Addgene #67845), AAV 2/9 hSyn-flex-dsRed-shRNA(scrambled) (Addgene #71383), AAV2/2 CAG.FLEX.ArchT-tdTomato (Addgene #28305 prepared by the University of North Carolina vector core) and AAV2/2 CAG.FLEX.tdTomato (Addgene #28306 prepared by the University of North Carolina vector core) were injected into the ILA of CRH-Cre mice. Viruses expressed for a minimum of 2 weeks.
Repetitive social presentation test. […] Films were scored offline for social interaction by a trained observer blind to the experimental condition. Sniffing of any part of the body, allo-grooming and close following counted as social interaction. […]

inhibitory DREADD = molecular target: T2, inhibitory DREADD (Homo sapiens, UniProt P08173, A203G/Y113C); experiment: Social novelty preference test with chemogenetic silencing of ILA CRH cells; format: in vivo, CRH-Cre mice; conditions: CNO 5 mg/kg intra-peritoneally 30 min prior to the learning trial; iDREADD in ILA CRH cells
T2 construct: host or cells: ILA CRH+ neurons of CRH-Cre mice, Cre-dependent AAV2/8 transduction in vivo
T2 sequence (P08173 1-479 Y113C/A203G): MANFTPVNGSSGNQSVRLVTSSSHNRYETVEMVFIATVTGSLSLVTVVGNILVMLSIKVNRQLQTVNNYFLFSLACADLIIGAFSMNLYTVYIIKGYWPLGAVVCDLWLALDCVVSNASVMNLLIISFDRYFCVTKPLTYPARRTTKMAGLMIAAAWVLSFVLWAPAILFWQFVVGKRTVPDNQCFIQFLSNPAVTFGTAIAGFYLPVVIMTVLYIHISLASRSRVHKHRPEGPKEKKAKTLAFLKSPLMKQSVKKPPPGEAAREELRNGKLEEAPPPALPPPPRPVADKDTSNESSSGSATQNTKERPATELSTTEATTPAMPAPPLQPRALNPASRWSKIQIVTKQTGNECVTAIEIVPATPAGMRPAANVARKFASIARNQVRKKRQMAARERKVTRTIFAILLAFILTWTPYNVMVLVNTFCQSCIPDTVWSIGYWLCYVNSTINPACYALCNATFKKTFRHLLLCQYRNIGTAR
Procedure: Injection coordinates were the following (in mm from Bregma): AP: 1.65, ML: ±0.1, DV: -2.6. Injections were done bilaterally with 100 nl injected per site. […]
Social novelty preference test. […] Using automatic tracking of the test mice (ANY-Maze, Stoelting), the inventors quantified the time the test mice spent in the immediate area surrounding each cup - and therefore, interacting with each stimulus mice - during learning and recall. Using the interaction time from the recall trial, the inventors calculated a discrimination index for social novelty preference as the following: D! = (time with novel - time with familiar) / total interaction time. […] The inventors also calculated the total time spent interacting with stimulus mice during each trial in order to verify that the sociability drive was not affected. […]

SMILES: C[N+]1([O-])CCN(C2=Nc3cc(Cl)ccc3Nc3ccccc32)CC1 [CNO, clozapine N-oxide]
- decrease in social interaction (excitatory DREADD): slightly facilitated
- discrimination index for social novelty preference (inhibitory DREADD): not different from zero
- exploration of novel and familiar mice during recall (inhibitory DREADD): explored the novel and familiar mice to the same extent
